Experimental data reported in PubChem BioAssay (NCI).
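The compound was tested at five concentrations on cells cultured in 96-well plates, with a 48-hour exposure period. Here, GI50 denotes the concentration required for 50% inhibition of growth. TGI denotes the concentration required for complete inhibition of growth.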

Tests used:
Assay in all cases: NCI tumour cell line growth inhibition, 48 h
[1] = test system: SK-MEL-2 melanoma
[2] = test system: SK-OV-3 ovarian
[3] = test system: IGROV1 ovarian
[4] = test system: K-562 leukemia
[5] = test system: HCC-2998 colon
[6] = test system: HOP-62 NSCLC
[7] = test system: SK-MEL-28 melanoma
[8] = test system: RXF 393 renal
[9] = test system: SW-620 colon
[10] = test system: SNB-19 CNS
[11] = test system: OVCAR-5 ovarian
[12] = test system: UACC-257 melanoma
[13] = test system: U251 CNS
[14] = test system: NCI-H226 lung
[15] = test system: EKVX NSCLC
[16] = test system: SK-MEL-5 melanoma
[17] = test system: A549 NSCLC
[18] = test system: HT29 colon
[19] = test system: BT-549 breast
[20] = test system: RPMI-8226 leukemia
[21] = test system: NCI-H23 lung
[22] = test system: NCI-H460 lung
[23] = test system: SF-268 CNS
[24] = test system: KM12 colon
[25] = test system: NCI-H522 lung
[26] = test system: OVCAR-3 ovarian
[27] = test system: NCI/ADR-RES ovarian
[28] = test system: MDA-MB-435
[29] = test system: SF-539 CNS
[30] = test system: CCRF-CEM leukemia
[31] = test system: PC-3 prostate
[32] = test system: ACHN renal
[33] = test system: SN12C renal
[34] = test system: MCF7 breast
[35] = test system: SF-295 CNS
[36] = test system: OVCAR-8 ovarian
[37] = test system: LOX IMVI melanoma
[38] = test system: M14 melanoma
[39] = test system: A498 renal
[40] = test system: HCT-116 colon
[41] = test system: OVCAR-4 ovarian
[42] = test system: 786-0 renal
[43] = test system: MALME-3M melanoma
[44] = test system: HS 578T breast
[45] = test system: UACC-62 melanoma
[46] = test system: UO-31 renal
[47] = test system: MDA-MB-231 breast
[48] = test system: TK-10 renal
[49] = test system: HCT-15 colon
[50] = test system: MOLT-4 leukemia
[51] = test system: DU-145 prostate
[52] = test system: SNB-75 CNS
[53] = test system: HL-60(TB) leukemia
[54] = test system: CAKI-1 renal

In the case of `C=CC(=O)N1CCN(CCCn2c(=O)c(-c3c(Cl)c(OC)cc(OC)c3Cl)cc3cnc(NC)nc32)CC1`, the GI50 [1] was 1.13 µM, the TGI [1] was 6.31 µM and the GI50 [2] was 2.18 µM. The TGI [2] was 8.38 µM, the GI50 [3] was 0.888 µM and the TGI [3] was 13.8 µM. The GI50 [4] was 5.96 µM, the TGI [4] was > 100 µM and the GI50 [5] was 10.9 µM. The TGI [5] was 24.6 µM, the GI50 [6] was 5.56 µM and the TGI [6] was 19.3 µM. For the same molecule, the GI50 [7] was 7.07 µM, the TGI [7] was 20.9 µM and the GI50 [8] was 1.33 µM. It also gave a TGI [8] of 12.9 µM, a GI50 [9] of 4.07 µM and a TGI [9] of 34.2 µM. It also gave a GI50 [10] of 7.32 µM, a TGI [10] of 20.7 µM and a GI50 [11] of 15.8 µM. The TGI [11] was 33.5 µM, the GI50 [12] was 3.8 µM and the TGI [12] was 18 µM. It also gave a GI50 [13] of 2.57 µM, a TGI [13] of 17 µM and a GI50 [14] of 0.0408 µM. For the same molecule, the TGI [14] was 20.7 µM, the GI50 [15] was 4.38 µM and the TGI [15] was 19.6 µM. For the same molecule, the GI50 [16] was 1.65 µM, the TGI [16] was 12.3 µM and the GI50 [17] was 4.41 µM. It also gave a TGI [17] of 19.7 µM, a GI50 [18] of 4.4 µM and a TGI [18] of 20 µM. It also gave a GI50 [19] of 0.681 µM, a TGI [19] of 16 µM and a GI50 [20] of 1.03 µM. For the same molecule, the TGI [20] was 4.09 µM, the GI50 [21] was 5.57 µM and the TGI [21] was 20.9 µM. It also gave a GI50 [22] of 3.22 µM, a TGI [22] of 19 µM and a GI50 [23] of 3.02 µM. The TGI [23] was 21.3 µM, the GI50 [24] was 4.61 µM and the TGI [24] was 19.9 µM. It also gave a GI50 [25] of 2.51 µM, a TGI [25] of 14.6 µM and a GI50 [26] of 5.6 µM. For the same molecule, the TGI [26] was 20.4 µM, the GI50 [27] was 7.12 µM and the TGI [27] was 67.6 µM. For the same molecule, the GI50 [28] was 2.74 µM, the TGI [28] was 13.8 µM and the GI50 [29] was 1.58 µM. The TGI [29] was 9.5 µM, the GI50 [30] was 2.04 µM and the TGI [30] was 11.9 µM. It also gave a GI50 [31] of 2.5 µM, a TGI [31] of 11.4 µM and a GI50 [32] of 0.71 µM. It also gave a TGI [32] of 11.6 µM, a GI50 [33] of 3.13 µM and a TGI [33] of 16.2 µM. The GI50 [34] was 8.06 µM, the TGI [34] was 31.8 µM and the GI50 [35] was 3.54 µM. The TGI [35] was 16.5 µM, the GI50 [36] was 3.95 µM and the TGI [36] was 22.9 µM. The GI50 [37] was 1.67 µM, the TGI [37] was 15 µM and the GI50 [38] was 1.67 µM. The TGI [38] was 16.8 µM, the TGI [39] was 1.81 µM and the GI50 [40] was 2.63 µM. The TGI [40] was 17.1 µM, the GI50 [41] was 1.14 µM and the TGI [41] was 25 µM. For the same molecule, the GI50 [42] was 1.32 µM, the TGI [42] was 17.2 µM and the GI50 [43] was 1.7 µM. It also gave a TGI [43] of 12.5 µM, a GI50 [44] of 2.25 µM and a TGI [44] of 51.8 µM. It also gave a GI50 [45] of 2.79 µM, a TGI [45] of 15.1 µM and a GI50 [46] of 0.849 µM. The TGI [46] was 12.4 µM, the GI50 [47] was 3.52 µM and the TGI [47] was 14.6 µM. The GI50 [48] was 1.75 µM, the TGI [48] was 16.6 µM and the GI50 [49] was 2.63 µM. For the same molecule, the TGI [49] was 15 µM, the GI50 [50] was 1.83 µM and the TGI [50] was > 100 µM. The GI50 [51] was 2.69 µM, the TGI [51] was 17.7 µM and the TGI [52] was 9.36 µM. The GI50 [53] was 2.8 µM, the TGI [53] was 29 µM and the GI50 [54] was 0.782 µM. The TGI [54] was 13.6 µM.
